Laboratory results reported in ChEMBL document CHEMBL3885881, “DrugMatrix”.

Species on record: Rattus norvegicus
Assay: DrugMatrix - Regimen: Daily Repeat
Format: toxicity, organism-based, Sprague-Dawley
Set-up: regimen Daily Repeat, gender Male, age 6-8 weeks
Conditions: in vivo, vehicle 100 % SALINE; for ABSOLUTE BASOPHIL / ABSOLUTE EOSINOPHIL / ABSOLUTE LYMPHOCYTE / ABSOLUTE MONOCYTE / ABSOLUTE SEGMENTED NEUTROPHIL / BASOPHIL / EOSINOPHIL / ERYTHROCYTE COUNT / HEMOGLOBIN / LEUKOCYTE COUNT / LYMPHOCYTE / MEAN CORPUSCULAR HEMOGLOBIN / MEAN CORPUSCULAR HEMOGLOBIN CONCENTRATION / MEAN CORPUSCULAR VOLUME / NUCLEATED RED BLOOD CELLS / PLATELET COUNT: tissue Blood
[1] = iv, 0.004 mg/kg, 72 h, dose level Low, time 3 day
[2] = iv, 0.004 mg/kg, 72 h, tissue Plasma, dose level Low, time 3 day
[3] = iv, 0.004 mg/kg, 120 h, dose level Low, time 5 day
[4] = iv, 0.004 mg/kg, 120 h, tissue Plasma, dose level Low, time 5 day
[5] = sc, 0 mg/kg, 72 h, route mini-PUMP - SUBCUTANEOUS, dose level Control, time 3 day
[6] = sc, 0 mg/kg, 72 h, tissue Plasma, route mini-PUMP - SUBCUTANEOUS, dose level Control, time 3 day

Compound: CNC[C@H](O)c1ccc(O)c(O)c1 [EPINEPHRINE]
- ABSOLUTE BASOPHIL [1]: 0 CELLS/uL
- ABSOLUTE EOSINOPHIL [1]: 127.67 CELLS/uL
- ABSOLUTE LYMPHOCYTE [1]: 11755 CELLS/uL
- ABSOLUTE MONOCYTE [1]: 0 CELLS/uL
- ABSOLUTE SEGMENTED NEUTROPHIL [1]: 884 CELLS/uL
- BASOPHIL [1]: 0%
- EOSINOPHIL [1]: 1%
- ERYTHROCYTE COUNT [1]: 5.71 x10E6/uL
- HEMOGLOBIN [1]: 14.07 G/DL
- LEUKOCYTE COUNT [1]: 12.77 x10E3/uL
- LYMPHOCYTE [1]: 92%
- MEAN CORPUSCULAR HEMOGLOBIN [1]: 24.73 pg
- MEAN CORPUSCULAR HEMOGLOBIN CONCENTRATION [1]: 37.8 G/DL
- MEAN CORPUSCULAR VOLUME [1]: 65.37 fL
- NUCLEATED RED BLOOD CELLS [1]: 0 /100WBC
- PLATELET COUNT [1]: 1271 x10E3/uL
- ALANINE AMINOTRANSFERASE [2]: 57.33 u/L
- ALBUMIN [2]: 4.43 G/DL
- ALKALINE PHOSPHATASE [2]: 425 u/L
- ASPARTATE AMINOTRANSFERASE [2]: 75 u/L
- BLOOD UREA NITROGEN [2]: 14 mg/dL
- CARBON DIOXIDE [2]: 27 mmol/L
- CHLORIDE [2]: 101.33 MEQ/L
- CHOLESTEROL [2]: 80 mg/dL
- CREATINE PHOSPHOKINASE [2]: 187.33 u/L
- CREATININE [2]: 0.23 mg/dL
- LACTATE DEHYDROGENASE [2]: 118.67 u/L
- LIPASE [2]: 9 u/L
- PHOSPHORUS [2]: 12.7 mg/dL
- POTASSIUM [2]: 6.89 MEQ/L
- SODIUM [2]: 145.07 MEQ/L
- TOTAL PROTEIN [2]: 6.1 G/DL
- ABSOLUTE BASOPHIL [3]: 0 CELLS/uL
- ABSOLUTE EOSINOPHIL [3]: 147.67 CELLS/uL
- ABSOLUTE LYMPHOCYTE [3]: 10984 CELLS/uL
- ABSOLUTE MONOCYTE [3]: 0 CELLS/uL
- ABSOLUTE SEGMENTED NEUTROPHIL [3]: 1368.33 CELLS/uL
- BASOPHIL [3]: 0%
- EOSINOPHIL [3]: 1%
- ERYTHROCYTE COUNT [3]: 5.59 x10E6/uL
- HEMOGLOBIN [3]: 13.2 G/DL
- LEUKOCYTE COUNT [3]: 12.5 x10E3/uL
- LYMPHOCYTE [3]: 87.33%
- MEAN CORPUSCULAR HEMOGLOBIN [3]: 23.63 pg
- MEAN CORPUSCULAR HEMOGLOBIN CONCENTRATION [3]: 37.23 G/DL
- MEAN CORPUSCULAR VOLUME [3]: 63.47 fL
- NUCLEATED RED BLOOD CELLS [3]: 0 /100WBC
- PLATELET COUNT [3]: 1309.33 x10E3/uL
- ALANINE AMINOTRANSFERASE [4]: 48 u/L
- ALBUMIN [4]: 4.47 G/DL
- ALKALINE PHOSPHATASE [4]: 367.33 u/L
- ASPARTATE AMINOTRANSFERASE [4]: 79 u/L
- BLOOD UREA NITROGEN [4]: 16 mg/dL
- CARBON DIOXIDE [4]: 24 mmol/L
- CHLORIDE [4]: 103 MEQ/L
- CHOLESTEROL [4]: 67.33 mg/dL
- CREATINE PHOSPHOKINASE [4]: 204.67 u/L
- CREATININE [4]: 0.23 mg/dL
- LACTATE DEHYDROGENASE [4]: 102.67 u/L
- LIPASE [4]: 8 u/L
- PHOSPHORUS [4]: 13.37 mg/dL
- POTASSIUM [4]: 6.61 MEQ/L
- SODIUM [4]: 145.67 MEQ/L
- TOTAL PROTEIN [4]: 6.3 G/DL
- ABSOLUTE BASOPHIL [5]: 0 CELLS/uL
- ABSOLUTE EOSINOPHIL [5]: 77.17 CELLS/uL
- ABSOLUTE LYMPHOCYTE [5]: 14293.83 CELLS/uL
- ABSOLUTE MONOCYTE [5]: 354 CELLS/uL
- ABSOLUTE SEGMENTED NEUTROPHIL [5]: 1658.33 CELLS/uL
- BASOPHIL [5]: 0%
- EOSINOPHIL [5]: 0.5%
- ERYTHROCYTE COUNT [5]: 6.27 x10E6/uL
- HEMOGLOBIN [5]: 13.4 G/DL
- LEUKOCYTE COUNT [5]: 16.38 x10E3/uL
- LYMPHOCYTE [5]: 87.17%
- MEAN CORPUSCULAR HEMOGLOBIN [5]: 21.42 pg
- MEAN CORPUSCULAR HEMOGLOBIN CONCENTRATION [5]: 36.27 G/DL
- MEAN CORPUSCULAR VOLUME [5]: 59.03 fL
- NUCLEATED RED BLOOD CELLS [5]: 0 /100WBC
- PLATELET COUNT [5]: 904.67 x10E3/uL
- ALANINE AMINOTRANSFERASE [6]: 48.33 u/L
- ALBUMIN [6]: 3.82 G/DL
- ALKALINE PHOSPHATASE [6]: 282.33 u/L
- ASPARTATE AMINOTRANSFERASE [6]: 86.83 u/L
- BLOOD UREA NITROGEN [6]: 20.17 mg/dL
- CARBON DIOXIDE [6]: 34.67 mmol/L
- CHLORIDE [6]: 102 MEQ/L
- CHOLESTEROL [6]: 71.5 mg/dL
- CREATININE [6]: 0.2 mg/dL
- LACTATE DEHYDROGENASE [6]: 159 u/L
- LIPASE [6]: 9 u/L
- PHOSPHORUS [6]: 10.12 mg/dL
- POTASSIUM [6]: 5.92 MEQ/L
- SODIUM [6]: 147.8 MEQ/L
- TOTAL BILIRUBIN [6]: 0.2 mg/dL
